Source: BindingDB's records for doi:10.1016/j.bmcl.2009.09.017 (Pfizer, 2009)
pIC50: −log10 of the molar value.

Experiment: Antagonist activity at P2Y12 receptor in human platelet rich plasma assessed as inhibition of ADP-induced platelet aggregation by light transmission aggregometry

Row | pIC50 | SMILES
1 | 5.85 | CCCCCOC(=O)N1CCN(C(=O)[C@H](CCC(=O)O)NC(=O)c2cc(N3CCC(OCCOC)CC3)nc(-c3ccccc3)n2)CC1 [(S)-4-(6-(4-(2-methoxyethoxy)piperidin-1-yl)-2-phenylpyrimidine-4-carboxamido)-5-oxo-5-(4-(pentyloxycarbonyl)piperazin-1-yl)pentanoic acid]
2 | 5.66 | CCCCCOC(=O)N1CCN(C(=O)[C@H](CCC(=O)O)NC(=O)c2cc(N3CCN(CCOC)CC3)nc(-c3ccccc3)n2)CC1 [(S)-4-(6-(4-(2-methoxyethyl)piperazin-1-yl)-2-phenylpyrimidine-4-carboxamido)-5-oxo-5-(4-(pentyloxycarbonyl)piperazin-1-yl)pentanoic acid]
3 | 5.20 | CCCCCOC(=O)N1CCN(C(=O)[C@H](CCC(=O)O)NC(=O)c2cc(N3CCC(CCOC)CC3)nc(-c3ccccc3)n2)CC1 [(S)-4-(6-(4-(2-methoxyethyl)piperidin-1-yl)-2-phenylpyrimidine-4-carboxamido)-5-oxo-5-(4-(pentyloxycarbonyl)piperazin-1-yl)pentanoic acid]
4 | 5.70 | CCCCCOC(=O)N1CCN(C(=O)[C@H](CCC(=O)O)NC(=O)c2cc(N3CCC(COCCOC)CC3)nc(-c3ccccc3)n2)CC1 [(S)-4-(6-(4-((2-methoxyethoxy)methyl)piperidin-1-yl)-2-phenylpyrimidine-4-carboxamido)-5-oxo-5-(4-(pentyloxycarbonyl)piperazin-1-yl)pentanoic acid]
5 | 6.11 | CCCCCOC(=O)N1CCN(C(=O)[C@H](CCC(=O)O)NC(=O)c2cc(N3CCC(CNCC)CC3)nc(-c3ccccc3)n2)CC1 [(S)-4-(6-(4-((ethylamino)methyl)piperidin-1-yl)-2-phenylpyrimidine-4-carboxamido)-5-oxo-5-(4-(pentyloxycarbonyl)piperazin-1-yl)pentanoic acid]
6 | 6.13 | CCCCCOC(=O)N1CCN(C(=O)[C@H](CCC(=O)O)NC(=O)c2cc(N3CCC(CNC)CC3)nc(-c3ccccc3)n2)CC1 [(S)-4-(6-(4-((methylamino)methyl)piperidin-1-yl)-2-phenylpyrimidine-4-carboxamido)-5-oxo-5-(4-(pentyloxycarbonyl)piperazin-1-yl)pentanoic acid]
7 | 6.31 | CCCCCOC(=O)N1CCN(C(=O)[C@H](CCC(=O)O)NC(=O)c2cc(N3CCC(CN)CC3)nc(-c3ccccc3)n2)CC1 [(S)-4-(6-(4-(aminomethyl)piperidin-1-yl)-2-phenylpyrimidine-4-carboxamido)-5-oxo-5-(4-(pentyloxycarbonyl)piperazin-1-yl)pentanoic acid]
8 | 6.64 | CCCCCOC(=O)N1CCN(C(=O)[C@H](CCC(=O)O)NC(=O)c2cc(N3CCC(C(=O)N4CCC4)CC3)nc(-c3ccccc3)n2)CC1 [(S)-4-(6-(4-(azetidine-1-carbonyl)piperidin-1-yl)-2-phenylpyrimidine-4-carboxamido)-5-oxo-5-(4-(pentyloxycarbonyl)piperazin-1-yl)pentanoic acid]
9 | 6.40 | CCCCCOC(=O)N1CCN(C(=O)[C@H](CCC(=O)O)NC(=O)c2cc(N3CCC(C(=O)N(CC)CC)CC3)nc(-c3ccccc3)n2)CC1 [(S)-4-(6-(4-(diethylcarbamoyl)piperidin-1-yl)-2-phenylpyrimidine-4-carboxamido)-5-oxo-5-(4-(pentyloxycarbonyl)piperazin-1-yl)pentanoic acid]
10 | 5.80 | CCCCCOC(=O)N1CCN(C(=O)[C@H](CCC(=O)O)NC(=O)c2cc(N3CCN(C(=O)N(C)C)CC3)nc(-c3ccccc3)n2)CC1 [(S)-4-(6-(4-(dimethylcarbamoyl)piperazin-1-yl)-2-phenylpyrimidine-4-carboxamido)-5-oxo-5-(4-(pentyloxycarbonyl)piperazin-1-yl)pentanoic acid]
11 | 6.43 | CCCCCOC(=O)N1CCN(C(=O)[C@H](CCC(=O)O)NC(=O)c2cc(N3CCC(C(=O)N(C)C)CC3)nc(-c3ccccc3)n2)CC1 [(S)-4-(6-(4-(dimethylcarbamoyl)piperidin-1-yl)-2-phenylpyrimidine-4-carboxamido)-5-oxo-5-(4-(pentyloxycarbonyl)piperazin-1-yl)pentanoic acid]
12 | 6.03 | CCCCCOC(=O)N1CCN(C(=O)[C@H](CCC(=O)O)NC(=O)c2cc(N3CCC(C(=O)NCC)CC3)nc(-c3ccccc3)n2)CC1 [(S)-4-(6-(4-(ethylcarbamoyl)piperidin-1-yl)-2-phenylpyrimidine-4-carboxamido)-5-oxo-5-(4-(pentyloxycarbonyl)piperazin-1-yl)pentanoic acid]
13 | 5.70 | CCCCCOC(=O)N1CCN(C(=O)[C@H](CCC(=O)O)NC(=O)c2cc(N3CCC(COC)CC3)nc(-c3ccccc3)n2)CC1 [(S)-4-(6-(4-(methoxymethyl)piperidin-1-yl)-2-phenylpyrimidine-4-carboxamido)-5-oxo-5-(4-(pentyloxycarbonyl)piperazin-1-yl)pentanoic acid]
14 | 5.82 | CCCCCOC(=O)N1CCN(C(=O)[C@H](CCC(=O)O)NC(=O)c2cc(N3CCN(C(C)=O)CC3)nc(-c3ccccc3)n2)CC1 [(S)-4-(6-(4-acetylpiperazin-1-yl)-2-phenylpyrimidine-4-carboxamido)-5-oxo-5-(4-(pentyloxycarbonyl)piperazin-1-yl)pentanoic acid]
15 | 6.14 | CCCCCOC(=O)N1CCN(C(=O)[C@H](CCC(=O)O)NC(=O)c2cc(N3CCC(N)CC3)nc(-c3ccccc3)n2)CC1 [(S)-4-(6-(4-aminopiperidin-1-yl)-2-phenylpyrimidine-4-carboxamido)-5-oxo-5-(4-(pentyloxycarbonyl)piperazin-1-yl)pentanoic acid]
16 | 6.03 | CCCCCOC(=O)N1CCN(C(=O)[C@H](CCC(=O)O)NC(=O)c2cc(N3CCN(C(N)=O)CC3)nc(-c3ccccc3)n2)CC1 [(S)-4-(6-(4-carbamoylpiperazin-1-yl)-2-phenylpyrimidine-4-carboxamido)-5-oxo-5-(4-(pentyloxycarbonyl)piperazin-1-yl)pentanoic acid]
17 | 6.16 | CCCCCOC(=O)N1CCN(C(=O)[C@H](CCC(=O)O)NC(=O)c2cc(N3CCC(C(N)=O)CC3)nc(-c3ccccc3)n2)CC1 [(S)-4-(6-(4-carbamoylpiperidin-1-yl)-2-phenylpyrimidine-4-carboxamido)-5-oxo-5-(4-(pentyloxycarbonyl)piperazin-1-yl)pentanoic acid]
18 | 5.57 | CCCCCOC(=O)N1CCN(C(=O)[C@H](CCC(=O)O)NC(=O)c2cc(N3CCC(OC)CC3)nc(-c3ccccc3)n2)CC1 [(S)-4-(6-(4-methoxypiperidin-1-yl)-2-phenylpyrimidine-4-carboxamido)-5-oxo-5-(4-(pentyloxycarbonyl)piperazin-1-yl)pentanoic acid]
19 | 5.85 | CCCCCOC(=O)N1CCN(C(=O)[C@H](CCC(=O)O)NC(=O)c2cc(N3CCN(C)CC3)nc(-c3ccccc3)n2)CC1 [(S)-4-(6-(4-methylpiperazin-1-yl)-2-phenylpyrimidine-4-carboxamido)-5-oxo-5-(4-(pentyloxycarbonyl)piperazin-1-yl)pentanoic acid]
20 | < 5.00 | CCCCCOC(=O)N1CCN(C(=O)[C@H](CCC(=O)O)NC(=O)c2cc(N3CCC(C)CC3)nc(-c3ccccc3)n2)CC1 [(S)-4-(6-(4-methylpiperidin-1-yl)-2-phenylpyrimidine-4-carboxamido)-5-oxo-5-(4-(pentyloxycarbonyl)piperazin-1-yl)pentanoic acid]
21 | 6.11 | CCCCCOC(=O)N1CCN(C(=O)[C@H](CCC(=O)O)NC(=O)c2cc(N3CCC(N4CCOCC4)CC3)nc(-c3ccccc3)n2)CC1 [(S)-4-(6-(4-morpholinopiperidin-1-yl)-2-phenylpyrimidine-4-carboxamido)-5-oxo-5-(4-(pentyloxycarbonyl)piperazin-1-yl)pentanoic acid]
22 | 5.44 | CCCCCOC(=O)N1CCN(C(=O)[C@H](CCC(=O)O)NC(=O)c2cc(OCC3CCN(C)CC3)nc(-c3ccccc3)n2)CC1 [(S)-4-(6-((1-methylpiperidin-4-yl)methoxy)-2-phenylpyrimidine-4-carboxamido)-5-oxo-5-(4-(pentyloxycarbonyl)piperazin-1-yl)pentanoic acid]
23 | < 5.00 | CCCCCOC(=O)N1CCN(C(=O)[C@H](CCC(=O)O)NC(=O)c2cc(SC3CCCCC3)nc(-c3ccccc3)n2)CC1 [(S)-4-(6-(cyclohexylthio)-2-phenylpyrimidine-4-carboxamido)-5-oxo-5-(4-(pentyloxycarbonyl)piperazin-1-yl)pentanoic acid]
24 | < 5.00 | CCCCCOC(=O)N1CCN(C(=O)[C@H](CCC(=O)O)NC(=O)c2cc(SC3CCCC3)nc(-c3ccccc3)n2)CC1 [(S)-4-(6-(cyclopentylthio)-2-phenylpyrimidine-4-carboxamido)-5-oxo-5-(4-(pentyloxycarbonyl)piperazin-1-yl)pentanoic acid]
25 | < 5.00 | CCCCCOC(=O)N1CCN(C(=O)[C@H](CCC(=O)O)NC(=O)c2cc(SC(C)(C)C)nc(-c3ccccc3)n2)CC1 [(S)-4-(6-(tert-butylthio)-2-phenylpyrimidine-4-carboxamido)-5-oxo-5-(4-(pentyloxycarbonyl)piperazin-1-yl)pentanoic acid]
26 | 5.20 | CCCCCOC(=O)N1CCN(C(=O)[C@H](CCC(=O)O)NC(=O)c2cc(N3CCOCC3)nc(-c3ccccc3)n2)CC1 [(S)-4-(6-morpholino-2-phenylpyrimidine-4-carboxamido)-5-oxo-5-(4-(pentyloxycarbonyl)piperazin-1-yl)pentanoic acid]

Row | SMILES | pIC50
27 | CCCCOC(=O)N1CCN(C(=O)[C@H](CCC(=O)O)NC(=O)c2cc(OC3CCN(C(C)C)CC3)nc(-c3ccccc3)n2)CC1 [(S)-5-(4-(butoxycarbonyl)piperazin-1-yl)-4-(6-(1-isopropylpiperidin-4-yloxy)-2-phenylpyrimidine-4-carboxamido)-5-oxopentanoic acid] | 5.74
28 | CCCCOC(=O)N1CCN(C(=O)[C@H](CCC(=O)O)NC(=O)c2cc(OCCN(CC)CC)nc(-c3ccccc3)n2)CC1 [(S)-5-(4-(butoxycarbonyl)piperazin-1-yl)-4-(6-(2-(diethylamino)ethoxy)-2-phenylpyrimidine-4-carboxamido)-5-oxopentanoic acid] | 5.52
29 | CCCCOC(=O)N1CCN(C(=O)[C@H](CCC(=O)O)NC(=O)c2cc(OCCOC)nc(-c3ccccc3)n2)CC1 [(S)-5-(4-(butoxycarbonyl)piperazin-1-yl)-4-(6-(2-methoxyethoxy)-2-phenylpyrimidine-4-carboxamido)-5-oxopentanoic acid] | 5.59
